{"source": "patent US6599943B1", "about": "“Use of hydroxyguanidines” (WaPharm AB, priority 1996, dated 2003)", "key": {"[1]": {"tested_on": "rat hearts (reperfusion injury)", "test": "Reperfusion injury of the heart: coronary artery occlusion/reperfusion arrhythmias", "format": "in vivo", "settings": "for Ventricular fibrilation Insidence (%) / Ventricular fibrilation Insidence (number of animals) / Ventricular tachycardia Insidence (%) / Ventricular tachycardia Insidence (number of animals) / Ventricular fibrilation Duration / Ventricular tachycardia Duration / Ventricular fibrilation Duration (s) / Ventricular tachycardia Duration (s): 20 min reperfusion; for Ventricular fibrilation Duration / Ventricular tachycardia Duration / Ventricular fibrilation Duration (s) / Ventricular tachycardia Duration (s): mean ±SEM; for effect on incidence and duration of ventricular tachycardias and fibrillations and on mortality, in words: versus control, p<0.05", "source_text": "Capacity of a hydroxyguanidine (PR5) to afford a tissue protective effect in the heart. […] In this model the coronary arteries of rat hearts were occluded, and after some time reperfusion was allowed to occur. During reperfusion events of cardiac arrhythmias are observed. They are well known to be related to the accumulation of oxygen derived free radicals. These arrhythmias are monitored in the animals treated with PR5 and in control animals either receiving no drug or allopurinol. Allopurinol was used as a control because it is well known from the litterature as an agent capable of preventing the generation of oxygen derived free radicals. In brief, rats were anaesthetised with sodium pentobarbital and ventilated with air using a respirator for small animals at a pressure 15-20 cm H2O and a […] rate of 60 strokes/min. ECG (electrocardiogram) and systemic blood pressure was registered on a Physiograph DMP-4B (Narco Bio-Systems, Houston, USA) using, respectively, a standard lead II and a pressure transducer PR-1500 (Narco Bio-Systems, Houston, USA) contected via a catheter to the left carotid artery. The chest was opened via the fourth intercostal space, the pericardium incised and a sling (4/0 silk Medicor, Budapest, Hungary) was placed around the left coronary artery close to its origin. The silk ligature was passed through a piece of plastic tubing, the chest was partially closed and the animal was allowed to recover for 10 min. PR-5, dissolved in 0.9% NaCl, was then injected i.v. 10 min before the occlusion of the coronary artery at doses 1, 3 or 10 mg/kg body weight. As control served the same volume of 0.9% NaCl. The coronary artery was occluded for a period of 10 min by applying tension to the ligature and pressing the tube onto the heart surface. Reperfusion was initiated by removing the clamp and releasing the tension on the ligature and allowing the perfusion to continue for 20 min. Ventricular ectopic activity was assessed during the 20 min reperfusion period by measuring the duration of ventricular tachycardias and ventricular fibrillations from the ECG curves. The results are shown in Table 2, where the results are presented as mean ±SEM (in seconds) for the total duration of ventricular tachycardias and ventricular fibrillations during the 20 min reperfusion period, (or until eventual death of the animal). The incidence of animals showing ventricular tachycardia and ventricular fibrillation are also given Table 2 as the number of animals showing ventricular tachycardia and ventricular fibrillation. Figures in parenthese relate to incidents expressed in % of the total number of animals.\nIn Table 2 a star “*” denotes a significant difference from the control at p<0.05 using the appropriate statistical test. Alp=allopurinol. n=number of animals tested."}, "[2]": {"molecular_target": "T1, bovine milk xanthine oxidase (Bos taurus, UniProt P80457)", "settings": "20 μM allopurinol, 100 μM xanthine, 0.004 units/ml xanthine oxidase", "description": "Capacity of allopurinol to inhibit the reduction of hydroxyguanidines by xanthine oxidase. […] In these tests varying amounts of guanoxabenz was added to assays yielding 150 μl final volumes and containing final concentrations 0.004 units/ml of bovine milk xanthine oxidase (Sigma, St. Louis, MO., USA), 100 μM xanthine, 20 μM allopurinol, 50 pM α2-adrenoceptors (in HT29 cell membranes), 33 mM Tris HCl, 1 mM EDTA, pH 7.5, and incubating for 1 hour at 25° C."}, "[3]": {"molecular_target": "T1, bovine milk xanthine oxidase", "test": "Capacity to sustain oxidation of xanthine by xanthine oxidase in the absence of oxygen, spectrophotometric", "format": "biochemical", "design": "host or cells: bovine milk", "settings": "for V = 1000 × (Δabs 295 nm) min^−1 (initial rate of the support of the oxidation of xanthine): 50 μM hydroxyguanidine, 50 μM xanthine, 0.05 units/ml xanthine oxidase, anaerobic, pH 7.5, 20° C., blank subtracted", "procedure": "Capacities of a series of hydroxyguanidine to sustain the oxidation of xanthine by xanthine oxidase in the absence of oxygen. The capacities of various hydroxyguanidines to sustain the oxidation of xanthine was assayed by using a spectrophotometric method. In this method bovine milk xanthine oxidase was injected to a Helma® sealable cuvette for anaerobic application thereby creating 1 ml of a reaction mixture that contained reagents as follows: 50 μM of a hydroxyguanidine, 50 μM xanthine, 0.05 units/ml bovine milk xanthine oxidase, 50 mM Tris and 1.5 mM EDTA; the pH of the reaction mixture being 7.5, and the temperature 20° C. Anaerobic conditions were assured by pre-gassing all solutions used for 5-10 min, with nitrogen. The rate of formation of uric acid was monitored spectrophotometrically by measuring the increase in absorbance at 295 nm (the absorption maximum for uric acid) at intervals. The relative capacities of the hydroxyguanidines to sustain oxidation of xanthine were estimated from the derivative of the initial linear phase of the curves. To obtain blank readings an equal volume of the solvent of the hydroxyguanidine (water) was added to the reaction mixture in separate experiments and the initial rate of absorbance change was substracted from the rate readings of the tested hydroxyguanidine.\nExemplary initial rates for the rate of the support of the oxidation of xanthine obtained by assaying the exemplary hydroxyguanidines listed above by the method in the present example are furthermore given in Table 2: […]"}, "[4]": {"tested_on": "rat spleen tissue", "test": "Formation of uric acid in spleen tissue under anaerobic conditions, HPLC", "procedure": "Capacity of a hydroxyguanidine (PR5) to sustain the formation of uric acid in tissues. […] Pieces of 0.6 g of rat spleen tissue were incubated in 7.5 ml argon-saturated Tris-Ringer buffer (4 mM KCl, 100 mM NaCl, 2 mM CaCl2, 2 mg/ml glucose and 40 mM TrisHCl, pH 7.4) in 50 ml Erlenmeyer flasks at 37° C., care being taken to maintain an atmosphere of argon above the incubations. As aerobic control served identical incubations, except that the buffers were saturated with air and the incubations performed under air. After 30 min the flasks were opened and the tissues minced to obtain tissue cubes with about 1 mm sides. […] The supernatants were then centrifuged using Ultrafree-MC Biomax-10 Millipore filtration devices at 5000×g for 0.5 hr in order to obtain an essentially particle free preparation which was being kept at −20° C. until analysed for the uric acid content using HPLC.\nFor analysing the uric acid content the above preparations were thawed and 0.05 ml aliquots were injected onto Waters 2690 Separation Module using a 2.1×250 mm Vydac RP C18, 90A, 201HS1010 column using a linear gradient of 10 mM KH2PO4 (A) and 10 mM KH2PO4 in 50% (v/v) methanol/water (B) (both at pH 4.55 adjusted with phosphoric acid). […] The uric acid peak was eluted after 13 min and was identified and detected according to the spectrum of a standard uric acid reference."}, "[5]": {"settings": "1 mg/kg i.v. 10 min before occlusion"}, "[6]": {"settings": "3 mg/kg i.v. 10 min before occlusion"}}, "note": "Where a name gives a salt, the structure may show the parent alone. Marks after values point to notes of the source that are not given here.", "data": [{"molecule": "Oc1ncnc2[nH]ncc12", "note": "[Allopurinol, 1H-pyrazolo[3,4-d]pyrimidin-4ol, reference compound]", "values": [{"measurement": "Mortality Insidence (%)", "setting": "[1]; 10 mg/kg", "result": 7, "unit": "%"}, {"measurement": "Mortality Insidence (number of animals)", "setting": "[1]; 10 mg/kg", "result": 1}, {"measurement": "Ventricular fibrilation Insidence (%)", "setting": "[1]; 10 mg/kg", "result": 50, "unit": "%"}, {"measurement": "Ventricular fibrilation Insidence (number of animals)", "setting": "[1]; 10 mg/kg", "result": 7}, {"measurement": "Ventricular tachycardia Insidence (%)", "setting": "[1]; 10 mg/kg", "result": 64, "unit": "%"}, {"measurement": "Ventricular tachycardia Insidence (number of animals)", "setting": "[1]; 10 mg/kg", "result": 9}, {"measurement": "Ventricular fibrilation Duration", "setting": "[1]; 10 mg/kg", "result": "30 ± 10", "unit": "s"}, {"measurement": "Ventricular tachycardia Duration", "setting": "[1]; 10 mg/kg", "result": "59 ± 12", "unit": "s"}, {"measurement": "effect on incidence and duration of ventricular tachycardias and fibrillations and on mortality, in words", "setting": "[1]", "result": "reduces these indices, although to a lesser extent than 3-10 mg/kg of PR5"}, {"measurement": "decrease in the apparent affinity of guanoxabenz on addition of allopurinol", "setting": "[2]", "result": "about 24 fold"}]}, {"molecule": "COc1ccc(C=NNC(=N)NO)c(Cl)c1OC", "note": "[PR5, N-(3,4-Dimethoxy-2-chlorobenzylideneamino)-N′-hydroxyguanidine tosylate]", "values": [{"measurement": "Mortality Insidence (%)", "setting": "[1]; 1 mg/kg i.v.", "result": 14, "unit": "%"}, {"measurement": "Mortality Insidence (number of animals)", "setting": "[1]; 1 mg/kg i.v.", "result": 2}, {"measurement": "Ventricular tachycardia Insidence (%)", "setting": "[1]; [5]", "result": 79, "unit": "%"}, {"measurement": "Ventricular tachycardia Insidence (number of animals)", "setting": "[1]; [5]", "result": 11}, {"measurement": "Ventricular fibrilation Insidence (%)", "setting": "[1]; 1 mg/kg i.v.", "result": 57, "unit": "%"}, {"measurement": "Ventricular fibrilation Insidence (number of animals)", "setting": "[1]; 1 mg/kg i.v.", "result": 8}, {"measurement": "Ventricular fibrilation Duration", "setting": "[1]; 1 mg/kg i.v.", "result": "34 ± 9", "unit": "s"}, {"measurement": "Ventricular tachycardia Duration", "setting": "[1]; 1 mg/kg i.v.", "result": "61 ± 11", "unit": "s"}, {"measurement": "Mortality Insidence (%)", "setting": "[1]; 3 mg/kg i.v.", "result": "0 (0)* %"}, {"measurement": "Mortality Insidence (number of animals)", "setting": "[1]; 3 mg/kg i.v.", "result": "0 (0)*"}, {"measurement": "Ventricular tachycardia Insidence (%)", "setting": "[1]; [6]", "result": 64, "unit": "%"}, {"measurement": "Ventricular tachycardia Insidence (number of animals)", "setting": "[1]; [6]", "result": 9}, {"measurement": "Ventricular fibrilation Insidence (%)", "setting": "[1]; 3 mg/kg i.v.", "result": 43, "unit": "%"}, {"measurement": "Ventricular fibrilation Insidence (number of animals)", "setting": "[1]; 3 mg/kg i.v.", "result": 6}, {"measurement": "Ventricular fibrilation Duration (s)", "setting": "[1]; 3 mg/kg i.v.", "result": "20 ± 7* s"}, {"measurement": "Ventricular tachycardia Duration (s)", "setting": "[1]; 3 mg/kg i.v.", "result": "38 ± 7* s"}, {"measurement": "Mortality Insidence (%)", "setting": "[1]; 10 mg/kg", "result": 7, "unit": "%"}, {"measurement": "Mortality Insidence (number of animals)", "setting": "[1]; 10 mg/kg", "result": 1}, {"measurement": "Ventricular fibrilation Insidence (%)", "setting": "[1]; 10 mg/kg", "result": 36, "unit": "%"}, {"measurement": "Ventricular fibrilation Insidence (number of animals)", "setting": "[1]; 10 mg/kg", "result": 5}, {"measurement": "Ventricular tachycardia Insidence (%)", "setting": "[1]; 10 mg/kg", "result": 57, "unit": "%"}, {"measurement": "Ventricular tachycardia Insidence (number of animals)", "setting": "[1]; 10 mg/kg", "result": 8}, {"measurement": "Ventricular fibrilation Duration (s)", "setting": "[1]; 10 mg/kg", "result": "17 ± 5* s"}, {"measurement": "Ventricular tachycardia Duration (s)", "setting": "[1]; 10 mg/kg", "result": "34 ± 7* s"}, {"measurement": "effect on incidence and duration of ventricular tachycardias and fibrillations and on mortality, in words", "setting": "[1]", "result": "significant decrease"}, {"measurement": "V = 1000 × (Δabs 295 nm) min^−1 (initial rate of the support of the oxidation of xanthine)", "setting": "[3]", "result": "96 1000 × (Δabs 295 nm) min^−1"}, {"measurement": "activity / capacity to undergo reduction (reaction A), in words", "setting": "[3]; as disclosed in Example 7", "result": "high activity"}, {"measurement": "uric acid in original incubation medium", "setting": "[4]; 0.5 mM PR5, anaerobic (argon), 60 min, 37° C.", "result": 285.5, "unit": "µmol/L"}, {"measurement": "formation of uric acid under the anaerobic conditions, in words", "setting": "[4]; 0.5 mM PR5, compared with aerobic control", "result": "restored completely to that of the aerobic control"}]}, {"molecule": "N-(3- Chloro-5-trifuluoromethylpyridyl-2-methyleneamino)-N′-hydroxyguanidine tosylate [PR14]", "values": [{"measurement": "V = 1000 × (Δabs 295 nm) min^−1 (initial rate of the support of the oxidation of xanthine)", "setting": "[3]", "result": "14 1000 × (Δabs 295 nm) min^−1"}]}]}
